In patent publication US5670538A, “Use of prodelphinidins for obtaining medicaments intended for the treatment of arthrosis” (Laboratoires Dolisos, priority 1992, dated 1997):
Where two headings read alike, the source gives them in different places.

Tested on: human articular chondrocytes
Assay: Radioimmunoassay of cartilaginous proteoglycans (PG) produced in tridimensional culture of human chondrocytes
Assay type: cell-based
Details: for PG in the clusters over 12 days: 0-12 days
Text: The model used for testing the proanthocyanidols, namely the tridimensional culture of human chondrocytes allows chondrorepair to be quantified by the production of matrix substances: type II collagen, proteoglycans, and chondroresorption by the reduction in the levels of prostaglandin E2 and of OH° and O°2 type free radicals produced.
1. Tridimensional culture of human chondrocytes
The technique used has been described in detail (Bassleer et al., 1986).
Briefly, human articular chondrocytes are cultivated in DMEM (Dulbecco's Modification of Eagle's Medium--ICN--Gand, Belgium) with either Ultroser G 1% (GIBCO, Gand, Belgium) or 10% of foetal calf serum (ICN--Gand--Belgium), and 50 μg of ascorbic acid/ml added to it. The cartilage originates from the apparently normal zone of heads of human femur suffering from arthrosis, immediately after an operation carried out to insert a total hip prosthesis; it can also originate from the head of a healthy femur, but which has undergone a traumatism and has had to be replaced. This cartilage is then digested by clostridial collagenase 1 mg/ml (Boehringer-Mannheim, Germany) in a buffer (NaCl 120 mM, CaCl2 1 mM, KCl 5 mM, KH2 PO4 1 mM, NaHCO3 25 mM, glucose 2 mM and Hepes 30 mM, pH 7.4) for 24 hours. After 6 successive washings and centrifugations, the chondrocytes, isolated from their matrix, are cultured in flasks (10^6 cells/2 ml of culture medium) placed on a gyrator (10 rpm). The cultures are kept at 37° C. in an atmosphere of air 95%-CO2 5% (Bassleer et al., 1986). Cultivated under these conditions, after 4 to 5 days the chondrocytes form a tridimensional cluster in each flask. These clusters, which at first have a flocculent appearance, then tend to condense during the culture. After two weeks, their diameter is, in general, from 1 to 2 mm.
The fresh weight of the clusters increases with the duration of the culture, above all during the few first days.
2. Radioimmunoassay of cartilaginous proteoglycans (PG)
The PGs are measured with a radioimmunoassay (RIA) which is specific and sensitive to human cartilaginous PGs (Gysen et al. 1984). The PGs were extracted from human cartilage, according to the methods described by Roughley et al., (1981) and by Bayliss and Venn (1980). The antiserum against the cartilaginous PGs was obtained from the rabbit according to the technique of Vaitukaitis et al. (1971). The radioimmunoassay is carried out in a 0.4 ml volume consisting of 0.1 ml of tracer solution (15000 to 20000 cpm ^125 I-PG, labelled by the chloramine T method (Greenwood, 1973). 0.1 ml of anti-PG antiserum diluted to 1/5000 in phosphate-buffered saline (PBS-50 mM PO4, 150 mM NaCl ), containing BSA (5 g/l bovine serum albumin and 6.7 mM sodium azide) (incubation buffer) and 0.2 ml of several dilutions of the culture medium or of the cluster extract or also of the antigen (0.5 -500 ng/tube).
After four days at 4° C., the free PGs* (radioactive PGs) are separated from the PG*-antibody complexes by double precipitation (Franchimont et al., 1983).
The sensitivity of the assay is 0.6 ng/tube. The accuracy of measurement is of the order of 4%. The coefficients of the intra- and inter assay variation are less than 10% and 20% respectively.
The antibodies are directed against the antigenic determinants of the central protein of PG. There is a complete crossed reaction with human PGs of cartilage from the ribs, vertebral disks and trachea, even with PGs extracted from veins or arteries. There is no cross reaction with glycosaminoglycans or with PGs extracted from foetal tissues or the small PGs from bone.
The PGs are measured directly in the culture medium. As for the chondrocyte clusters, they are washed 3 times in a phosphate-buffered saline (PBS-50 mM PO4, 150 mM NaCl pH 7.4) containing protease inhibitors (Oegema et al., 1975:100 mM 6-aminohexanoic acid, 10 mM EDTA, 50 mM benzamidine hydrochloride, 5.10^-8 M trypsin inhibitor, 6.7 mM sodium azide and 200 U/ml superoxide dismutase). […]

`Oc1cc(O)c2c(c1)O[C@H](c1cc(O)c(O)c(O)c1)[C@@H](O)[C@@H]2c1c(O)cc(O)c2c1O[C@H](c1cc(O)c(O)c(O)c1)[C@H](O)C2` [Substance Ia, GC-(4 alpha→8) EGC] was tested, and the “PG in the clusters over 12 days” value (1% Ultroser G, 1 μg/ml) was 912 ± 83.6 ng/μg DNA, the “PG in the clusters over 12 days” value (1% Ultroser G, 10 μg/ml) was 1411 ± 153 ng/μg DNA and the “PG in the clusters over 12 days” value (1% Ultroser G, 100 μg/ml) was 2105 ± 42 ng/μg DNA. For the same compound, the “PGs released in the culture medium” value (1% Ultroser G, culture time 0-4 days, 1 μg/ml) was 14.2 ± 1.6 μg/μg DNA/96 h, the “PGs released in the culture medium” value (1% Ultroser G, culture time 0-4 days, 10 μg/ml) was 22.4 ± 0.2 μg/μg DNA/96 h and the “PGs released in the culture medium” value (1% Ultroser G, culture time 0-4 days, 100 μg/ml) was 28.6 ± 2.85 μg/μg DNA/96 h. For the same compound, the “PGs released in the culture medium” value (1% Ultroser G, culture time 4-8 days, 1 μg/ml) was 1.74 ± 0.18 μg/μg DNA/96 h, the “PGs released in the culture medium” value (1% Ultroser G, culture time 4-8 days, 10 μg/ml) was 3.26 ± 0.12 μg/μg DNA/96 h and the “PGs released in the culture medium” value (1% Ultroser G, culture time 4-8 days, 100 μg/ml) was 3.94 ± 0.1 μg/μg DNA/96 h. For the same compound, the “PGs released in the culture medium” value (1% Ultroser G, culture time 8-12 days, 1 μg/ml) was 0.44 ± 0.04 μg/μg DNA/96 h, the “PGs released in the culture medium” value (1% Ultroser G, culture time 8-12 days, 10 μg/ml) was 0.74 ± 0.18 μg/μg DNA/96 h and the “PGs released in the culture medium” value (1% Ultroser G, culture time 8-12 days, 100 μg/ml) was 0.78 ± 0.02 μg/μg DNA/96 h. For the same compound, the “Proteoglycans released during the 12 days of culture, Abs” value (1% Ultroser G, cumulative, 1 μg/ml) was 16.4 μg/μg DNA/12 days, the “Proteoglycans released during the 12 days of culture, Abs” value (1% Ultroser G, cumulative, 10 μg/ml) was 26.4 μg/μg DNA/12 days and the “Proteoglycans released during the 12 days of culture, Abs” value (1% Ultroser G, cumulative, 100 μg/ml) was 33.3 μg/μg DNA/12 days. For the same compound, the “Concentrations of PG in the clusters, effect in words” value (1% Ultroser G, three concentrations studied) was “significantly stimulated and in a dose-dependent way”, the activity at 1 µg/mL (Homo sapiens, Chondrocyte, 288 h, 1% Ultroser G, cumulative, 1 μg/ml, control = 100, read-out: Proteoglycans released during the 12 days of culture, %) was 103% and the activity at 10 µg/mL (Homo sapiens, Chondrocyte, 288 h, 1% Ultroser G, cumulative, 10 μg/ml, control = 100, read-out: Proteoglycans released during the 12 days of culture, %) was 165%. For the same compound, the activity at 100 µg/mL (Homo sapiens, Chondrocyte, 288 h, 1% Ultroser G, cumulative, 100 μg/ml, control = 100, read-out: Proteoglycans released during the 12 days of culture, %) was 208%, the activity at 10 µg/mL (Homo sapiens, Chondrocyte, foetal calf serum, Table 14, 0-4 days, 10 μg/ml, control = 100%, read-out: PG in the culture medium, % of control) was 118% and the activity at 100 µg/mL (Homo sapiens, Chondrocyte, foetal calf serum, Table 14, 0-4 days, 100 μg/ml, control = 100%, read-out: PG in the culture medium, % of control) was 147%. The activity at 10 µg/mL (Homo sapiens, Chondrocyte, foetal calf serum, Table 14, 4-8 days, 10 μg/ml, control = 100%, read-out: PG in the culture medium, % of control) was 119%, the activity at 100 µg/mL (Homo sapiens, Chondrocyte, foetal calf serum, Table 14, 4-8 days, 100 μg/ml, control = 100%, read-out: PG in the culture medium, % of control) was 135% and the activity at 10 µg/mL (Homo sapiens, Chondrocyte, foetal calf serum, Table 15, 0-4 days, 10 μg/ml, control = 100%, read-out: PG in the culture medium, % of control) was 131%. The activity at 100 µg/mL (Homo sapiens, Chondrocyte, foetal calf serum, Table 15, 0-4 days, 100 μg/ml, control = 100%, read-out: PG in the culture medium, % of control) was 166%, the activity at 10 µg/mL (Homo sapiens, Chondrocyte, foetal calf serum, Table 15, 4-8 days, 10 μg/ml, control = 100%, read-out: PG in the culture medium, % of control) was 123% and the activity at 100 µg/mL (Homo sapiens, Chondrocyte, foetal calf serum, Table 15, 4-8 days, 100 μg/ml, control = 100%, read-out: PG in the culture medium, % of control) was 138%. It also gave an activity at 10 µg/mL (Homo sapiens, Chondrocyte, foetal calf serum, Table 16, 0-8 days, 10 μg/ml, control = 100%, read-out: PG in the clusters over 8 days, % of control) of 128%, an activity at 100 µg/mL (Homo sapiens, Chondrocyte, foetal calf serum, Table 16, 0-8 days, 100 μg/ml, control = 100%, read-out: PG in the clusters over 8 days, % of control) of 158% and an activity at 10 µg/mL (Homo sapiens, Chondrocyte, foetal calf serum, Table 17, 0-8 days, 10 μg/ml, control = 100%, read-out: PG in the clusters over 8 days, % of control) of 120%. The activity at 100 µg/mL (Homo sapiens, Chondrocyte, foetal calf serum, Table 17, 0-8 days, 100 μg/ml, control = 100%, read-out: PG in the clusters over 8 days, % of control) was 144%, the “PGs in the clusters, effect in words” value (foetal calf serum, 10 and 100 μg/ml) was “significantly increased” and the “PG in the culture medium” value (foetal calf serum, Table 14, 0-4 days, 10 μg/ml) was 7.7 ± 0.49 μg/μg DNA - 96 H. For the same compound, the “PG in the culture medium” value (foetal calf serum, Table 14, 0-4 days, 100 μg/ml) was 9.5 ± 1.34 μg/μg DNA - 96 H, the “PG in the culture medium” value (foetal calf serum, Table 14, 4-8 days, 10 μg/ml) was 2.37 ± 0.17 μg/μg DNA - 96 H and the “PG in the culture medium” value (foetal calf serum, Table 14, 4-8 days, 100 μg/ml) was 2.69 ± 0.15 μg/μg DNA - 96 H. The “PG in the culture medium” value (foetal calf serum, Table 15, 0-4 days, 10 μg/ml) was 6.9 ± 0.99 μg/μg DNA - 96 H, the “PG in the culture medium” value (foetal calf serum, Table 15, 0-4 days, 100 μg/ml) was 8.8 ± 1.49 μg/μg DNA - 96 H and the “PG in the culture medium” value (foetal calf serum, Table 15, 4-8 days, 10 μg/ml) was 2.1 ± 0.21 μg/μg DNA - 96 H. The “PG in the culture medium” value (foetal calf serum, Table 15, 4-8 days, 100 μg/ml) was 2.4 ± 0.09 μg/μg DNA - 96 H, the “PG in the clusters over 8 days” value (foetal calf serum, Table 16, 0-8 days, 10 μg/ml) was 1004 ± 56 ng/μg DNA and the “PG in the clusters over 8 days” value (foetal calf serum, Table 16, 0-8 days, 100 μg/ml) was 1242 ± 208 ng/μg DNA. The “PG in the clusters over 8 days” value (foetal calf serum, Table 17, 0-8 days, 10 μg/ml) was 688.8 ± 40.65 ng/μg DNA and the “PG in the clusters over 8 days” value (foetal calf serum, Table 17, 0-8 days, 100 μg/ml) was 829.4 ± 9.37 ng/μg DNA.
